Results from PubChem BioAssay AID2060905 (Molecular Pharmacology Branch, DTP, NCI, 2025).

Tested on: 282377-053-R-J1-PDC complex spheroid viability
Experiment: Anticancer human tumor 282377-053-R-J1-PDC patient-derived colon adenocarcinoma cell line growth inhibition [RAS]
Conditions: for IC50: curve of first compound; for viability, T/C: stronger effect = lower value
Text: RAS pathway inhibitors in Combinations in Complex Spheroids
A high-throughput screen of multi-cell type tumor spheroids was designed to identify active combinations of RAS pathway inhibitors and targeted small molecules. Complex spheroids include a stromal component modeled by human endothelial cells (HUVEC) and fibroblasts modeled by human mesenchymal stem cells (MSCs). The concentration ranges selected for each drug and investigational agent were based upon clinically achievable concentrations if the clinical Cmax of the agent was known.
Compounds. The drugs and investigational agents: abemaciclib (NSC768073), cobimetinib (NSC768068), divarasib (GDC6063, NSC841802), docetaxel (NSC628503), GDC-1971 (RLY-1971, NSC841576), gemcitabine (NSC613327), inavolisib (NSC800729), ipatasertib (NSC767898), KB-0742 (NSC834161), MRTX-1133 (NSC836407), osimertinib (NSC779217), RMC-4630 (NSC839698), RMC-6236 (NSC851965), RMC-6291 (NSC852671), Ro-3306 (NSC812927), sapanisertib (NSC764658), SN-38 (NSC673596), staurosporine (NSC755774), SY5609 (NSC837396), and tovorafenib (DAY101, NSC766906), were obtained from the National Cancer Institute (NCI) Developmental Therapeutics Program Chemical Repository. The FDA-approved anticancer drug set is available from the NCI Developmental Therapeutics Program. […] The stock solutions were prepared in dimethyl sulfoxide (DMSO, Sigma-Aldrich, St. Louis, MO, cat. D2650) at 800-fold the tested concentration and stored at -70 degrees C prior to their use. All drugs and investigational agents were tested over a range starting from a high concentration at or near the clinical Cmax and decreasing in half-log increments. If the clinical Cmax for an agent had not been determined, the highest concentration tested was 10 microM.
Cell Culture. All cells were maintained in an incubator at 37 degrees C and 5% CO2 with 95% humidity. The PDC lines were cultured according to standard operating procedures established by the NCI PDMR. All PDCs were thawed and cultured in Matrigel-coated flasks prepared with a working solution of 1X Ham's F-12 nutrient mix, without supplementation (Invitrogen, Waltham, MA, cat. 11765054), 100 U/mL penicillin-streptomycin (Invitrogen, cat. 15140122), and 2.5% Matrigel (Corning Inc., Corning, NY, cat. 354248) for the first three passages. The 362531-283-R-J2-PDC and 782815-120-R-J1-PDC lines were cultured in 6C/Colon 1B media, which includes advanced DMEM/F-12 (Thermo Fisher Scientific, cat. 12634028), 10 mM HEPES (Thermo Fisher Scientific, cat. 15630080), 1X GlutaMAX supplement (Thermo Fisher Scientific, cat. 35050061), 0.1 mg/mL primocin (InvivoGen, San Diego, CA, cat. ant-pm-2), 10% defined fetal bovine serum, heat inactivated (HyClone Laboratories Inc., Logan, UT, cat. SH30070.03HI), 50% L-WRN conditioned media (ATCC, cat. CRL-3276), 1.25 mM N-Acetyl-L-cysteine (Sigma-Aldrich, cat. A9165), 10 mM nicotinamide (Sigma-Aldrich, cat. N0636), 1X B-27 supplement (Thermo Fisher Scientific, cat. 17504044), 1X N-2 supplement (Thermo Fisher Scientific, cat. 17502048), 50 ng/mL human EGF (Thermo Fisher Scientific, cat. PHG0311), and 10 microM Y-27632 dihydrochloride (Tocris Bioscience, cat. 1254). The K12877-001-R-J1-PDC line was cultured in 6I media, which includes all 6C/Colon 1B media plus 10 ng/mL human FGF-10 (PeproTech, cat. 100-26), 1 ng/mL human FGF-2 (PeproTech, cat. 100-18B), 1 µM prostaglandin E2 (Tocris Bioscience, cat. 2296), […] hydrocortisone (Sigma-Aldrich, cat. H4001), and […] bovine insulin (Sigma-Aldrich, cat. I6634). The K86415-001-R-J1-PDC line was cultured in 6D media, which includes all 6C/Colon 1B media components minus the L-WRN conditioned media. The 485176-168-R4-J1-PDC was cultured in PANC media, which includes all 6C/Colon 1B media plus 100 ng/mL human FGF-10 (PeproTech, cat. 100-26), 500 nM SB-431542 (Selleckchem, cat. S1067), and 10 nM gastrin (Tocris Bioscience, cat. 3006). […]

[1] = second compound 0.0316 µM, first compound 0.0316 µM
[2] = second compound 0.0316 µM, first compound 0.1 µM
[3] = second compound 0.0316 µM, first compound 0.316 µM
[4] = second compound 0.0316 µM, first compound 1 µM
[5] = second compound 0.1 µM, first compound 0.0316 µM
[6] = second compound 0.1 µM, first compound 0.1 µM
[7] = second compound 0.1 µM, first compound 0.316 µM
[8] = second compound 0.1 µM, first compound 1 µM
[9] = second compound 0.316 µM, first compound 0.0316 µM
[10] = second compound 0.316 µM, first compound 0.1 µM
[11] = second compound 0.316 µM, first compound 0.316 µM
[12] = second compound 0.316 µM, first compound 1 µM
[13] = second compound 1 µM, first compound 0.0316 µM
[14] = second compound 1 µM, first compound 0.1 µM
[15] = second compound 1 µM, first compound 0.316 µM
[16] = second compound 1 µM, first compound 1 µM
[17] = second compound 3.16 µM, first compound 0.0316 µM
[18] = second compound 3.16 µM, first compound 0.1 µM
[19] = second compound 3.16 µM, first compound 0.316 µM
[20] = second compound 3.16 µM, first compound 1 µM
[21] = second compound 10 µM, first compound 0.0316 µM
[22] = second compound 10 µM, first compound 0.1 µM
[23] = second compound 10 µM, first compound 0.316 µM
[24] = second compound 10 µM, first compound 1 µM
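Further: spheroids exposed to agents for seven days before readout.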
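Wherever viability, T/C is given: luminescence viability as percent of DMSO vehicle control wells.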

## CC1(O)CCCC1n1c(=O)c(C(F)F)cc2cnc(NC3CCN(S(C)(=O)=O)CC3)nc21 (centres undefined) + C#Cc1c(F)ccc2cc(O)cc(-c3ncc4c(N5CC6CCC(C5)N6)nc(OCC56CCCN5CC(F)C6)nc4c3F)c12
Second compound 0.0316 µM
  IC50: 6.26 µM
Second compound 0.1 µM
  IC50: 6.08 µM
Second compound 0.316 µM
  IC50: 6.1 µM
Second compound 1 µM
  IC50: 6.13 µM
Second compound 3.16 µM
  IC50: 6.17 µM
Second compound 10 µM
  IC50: 6.21 µM
[1]
  viability, T/C: 102%
[2]
  viability, T/C: 115%
[3]
  viability, T/C: 135%
[4]
  viability, T/C: 121%
Second compound 0.0316 µM, first compound 3.16 µM
  viability, T/C: 121%
Second compound 0.0316 µM, first compound 10 µM
  viability, T/C: 2.6%
[5]
  viability, T/C: 109%
[6]
  viability, T/C: 117%
[7]
  viability, T/C: 128%
[8]
  viability, T/C: 125%
Second compound 0.1 µM, first compound 3.16 µM
  viability, T/C: 111%
Second compound 0.1 µM, first compound 10 µM
  viability, T/C: 3.18%
[9]
  viability, T/C: 117%
[10]
  viability, T/C: 126%
[11]
  viability, T/C: 120%
[12]
  viability, T/C: 108%
Second compound 0.316 µM, first compound 3.16 µM
  viability, T/C: 112%
Second compound 0.316 µM, first compound 10 µM
  viability, T/C: 3.11%
[13]
  viability, T/C: 98.9%
[14]
  viability, T/C: 111%
[15]
  viability, T/C: 123%
[16]
  viability, T/C: 110%
Second compound 1 µM, first compound 3.16 µM
  viability, T/C: 122%
Second compound 1 µM, first compound 10 µM
  viability, T/C: 3.32%
[17]
  viability, T/C: 94.4%
[18]
  viability, T/C: 127%
[19]
  viability, T/C: 130%
[20]
  viability, T/C: 102%
Second compound 3.16 µM, first compound 3.16 µM
  viability, T/C: 113%
Second compound 3.16 µM, first compound 10 µM
  viability, T/C: 4.31%
[21]
  viability, T/C: 99%
[22]
  viability, T/C: 117%
[23]
  viability, T/C: 116%
[24]
  viability, T/C: 121%
Second compound 10 µM, first compound 3.16 µM
  viability, T/C: 132%
Second compound 10 µM, first compound 10 µM
  viability, T/C: 2.84%

## CCN1CCN(Cc2ccc(Nc3ncc(F)c(-c4cc(F)c5nc(C)n(C(C)C)c5c4)n3)nc2)CC1 + C#Cc1c(F)ccc2cc(O)cc(-c3ncc4c(N5CC6CCC(C5)N6)nc(OCC56CCCN5CC(F)C6)nc4c3F)c12
Second compound 0.0316 µM
  IC50: > 1 µM
Second compound 0.1 µM
  IC50: > 1 µM
Second compound 0.316 µM
  IC50: > 1 µM
Second compound 1 µM
  IC50: > 1 µM
Second compound 3.16 µM
  IC50: > 1 µM
Second compound 10 µM
  IC50: > 1 µM
Second compound 0.0316 µM, first compound 0.00316 µM
  viability, T/C: 101%
Second compound 0.0316 µM, first compound 0.01 µM
  viability, T/C: 101%
[1]
  viability, T/C: 112%
[2]
  viability, T/C: 119%
[3]
  viability, T/C: 127%
[4]
  viability, T/C: 127%
Second compound 0.1 µM, first compound 0.00316 µM
  viability, T/C: 125%
Second compound 0.1 µM, first compound 0.01 µM
  viability, T/C: 95.5%
[5]
  viability, T/C: 107%
[6]
  viability, T/C: 106%
[7]
  viability, T/C: 135%
[8]
  viability, T/C: 126%
Second compound 0.316 µM, first compound 0.00316 µM
  viability, T/C: 105%
Second compound 0.316 µM, first compound 0.01 µM
  viability, T/C: 108%
[9]
  viability, T/C: 109%
[10]
  viability, T/C: 121%
[11]
  viability, T/C: 117%
[12]
  viability, T/C: 129%
Second compound 1 µM, first compound 0.00316 µM
  viability, T/C: 97.3%
Second compound 1 µM, first compound 0.01 µM
  viability, T/C: 100%
[13]
  viability, T/C: 96.7%
[14]
  viability, T/C: 103%
[15]
  viability, T/C: 119%
[16]
  viability, T/C: 132%
Second compound 3.16 µM, first compound 0.00316 µM
  viability, T/C: 107%
Second compound 3.16 µM, first compound 0.01 µM
  viability, T/C: 112%
[17]
  viability, T/C: 103%
[18]
  viability, T/C: 118%
[19]
  viability, T/C: 134%
[20]
  viability, T/C: 131%
Second compound 10 µM, first compound 0.00316 µM
  viability, T/C: 90.2%
Second compound 10 µM, first compound 0.01 µM
  viability, T/C: 90.1%
[21]
  viability, T/C: 101%
[22]
  viability, T/C: 111%
[23]
  viability, T/C: 104%
[24]
  viability, T/C: 120%
